Assays:
Sclerotinia homoeocarpa = assay: Protective treatment of mature bentgrass (lysozyme 24 hours before inoculation); assay type: in vivo
Experimental: One year old bentgrass (Agrotis spp.) cv Pennlink was used as the host in this trial. It was grown in an open field at Select Sand Farm in Fort Langley, B.C. Round pieces of turfgrass, 6 cm diameter, were cut out and placed on 5 cm high pots (made from PVC pipes) containing steam sterilized river washed sand. The potted grass was regularly watered, fertilized and maintained at a cutting height of approximately 2.0 cm above the soil surface.
The efficacy of egg white lysozyme was tested on Sclerotinia homoeocarpa. Virulent isolates of the test fungi were grown on a rye grain medium for approximately one week. This medium consisted of 50 g of rye grain, 1 g of CaCO3, and 75 ml of water. The medium was prepared in a 250 ml Erlenmeyer flask and autoclaved for 30 minutes. Three to five plugs of the actively growing mycelia from one-week-old culture on potato dextrose agar were transferred into flasks, and incubated in the dark at room temperature.
Lysozyme was applied with a hand held spray bottle. Treated and untreated bentgrass was then inoculated with the test fungi by placing 3 infected rye kernels in the center of the pot, just above the soil surface. After inoculation, the pots were placed in humidity chambers on a greenhouse bench. […]
Pots were removed from the humidity chamber and evaluated individually for disease severity. […]

[1] = system: Pythium sylvaticom (IM195); assay: Inhibition of Pythium by lysozyme in PD broth, % plate coverage; assay type: cell-based
Experimental: (§1) Potato dextrose broth was prepared, poured into glass dilution bottles (100 ml each), autoclaved and allowed to cool. […] A fungal square (plug) of each culture was cut and placed in/near the center of each plate. Fungal growth was quantified by measuring the diameter of growth of each fungus while it was growing on the liquid media in each petri dish using a ruler. Each treatment was done in triplicate.
(§2) The experiment was repeated three times (three batches). The observation period for each batch was 2 weeks.
(§3) The fungal growth was expressed in % coverage of the petri dishes by the fungal patches. The calculation can be presented in the following equation:
(§4) Fungal growth (%)=(area of fungal patch/total plate area)×100

[2] = system: Pythium torrulesum (IM193); assay: as above; assay type: cell-based; conditions: for fungal coverage of the plates: end of 2 weeks
Experimental: as §1, §2, §3, §4

[3] = system: Phytophthora cinnamomi (IM194); assay: Inhibition of Phytophthora by lysozyme in PD broth, % plate coverage; assay type: cell-based; conditions: for fungal growth (% plate coverage): 2 weeks after inoculation
Experimental: as §1, §2, §3, §4

[4] = system: IM080 Botrytis (pepper, BCMAF F24); assay: Inhibition of Botrytis by lysozyme in PD broth, % plate coverage; assay type: cell-based; conditions: for average fungal growth (% plate coverage): day 14
Experimental: as §1, with “Botrytis was grown in petri dishes on PD agar. Potato” for “Potato”, “triplicate. The experiment was repeated three times (three batches). The observation period for each batch was 2 weeks.” for “triplicate.”
(§5) The fungal growth was expressed in % coverage of the petri dishes by the fungal patches. The calculation is presented in the following equation:
(§6) Fungal growth (%)=(area of fungal patch/total plate area )×100
(§7) The average plate coverage for each treatment was plotted against the time after inoculation (FIGS. 14-19). Statistical analysis was carried out using SigmaStat (Version 2.0, SPSS Science, 1997).

[5] = system: IM082 Botrytis (blueberry, BCMAF F25); assay: as above; assay type: cell-based; conditions: for coverage of the petri dishes: day 14
Experimental: as §1, with “Botrytis was grown in petri dishes on PD agar. Potato” for “Potato”, “triplicate. The experiment was repeated three times (three batches). The observation period for each batch was 2 weeks.” for “triplicate.”
as §5, §6, §7

[6] = system: IM111 Botrytis (blueberry, BCMAF F27); assay: as above; assay type: cell-based; conditions: for fungal growth (% plate coverage): day 14
Experimental: as §1, with “Botrytis was grown in petri dishes on PD agar. Potato” for “Potato”, “triplicate. The experiment was repeated three times (three batches). The observation period for each batch was 2 weeks.” for “triplicate.”
as §5, §6, §7

[7] = system: IM112 Botrytis cinerea(Pers.); assay: as above; assay type: cell-based
Experimental: as §1, with “Botrytis was grown in petri dishes on PD agar. Potato” for “Potato”, “triplicate. The experiment was repeated three times (three batches). The observation period for each batch was 2 weeks.” for “triplicate.”
as §5, §6, §7

[8] = system: IM113 Botrytis cinerea(Pers.); assay: as above; assay type: cell-based; conditions: for fungal growth (% plate coverage): day 14
Experimental: as §1, with “Botrytis was grown in petri dishes on PD agar. Potato” for “Potato”, “triplicate. The experiment was repeated three times (three batches). The observation period for each batch was 2 weeks.” for “triplicate.”
as §5, §6, §7

IM188 Botrytis cinerea = assay: as above; assay type: cell-based; conditions: for fungal growth (% plate coverage): day 14
Experimental: as §1, with “Botrytis was grown in petri dishes on PD agar. Potato” for “Potato”, “triplicate. The experiment was repeated three times (three batches). The observation period for each batch was 2 weeks.” for “triplicate.”
as §5, §6, §7

lysozyme: type c egg white lysozyme, enzyme of approximately 129 amino acids; commercially available from Canadian Inovatech, Inc.
differences in disease severity among the three lysozyme concentrations (Sclerotinia homoeocarpa; 5,000, 10,000, 20,000 ppm): no significant differences | disease severity compared to the untreated control (Sclerotinia homoeocarpa; 5,000, 10,000 or 20,000 ppm, day 7, 10 or 21 after inoculation, p≦0.01): significant reductions | fungal growth (% plate coverage) ([1]; 50 ppm): 86% | fungal growth (% plate coverage) ([1]; 100 ppm): 51% | fungal growth compared with 100, 50 or 0 ppm (Tukey test) ([1]; 250, 500 or 1000 ppm, p<0.05): significantly lower | fungal growth (% plate coverage) ([1]; 250 ppm): 15% | fungal growth (% plate coverage) ([1]; 500 ppm): 7% | fungal growth (% plate coverage) ([1]; 1000 ppm): 6% | fungal coverage of the plates ([2]; 50 ppm): 80% | fungal coverage of the plates ([2]; 100 ppm): 80% | fungal growth compared with 100, 50 or 0 ppm (Tukey test) ([2]; 250, 500 or 1000 ppm, p<0.05): significantly lower | fungal coverage of the plates ([2]; 250 ppm): 51% | fungal coverage of the plates ([2]; 500 ppm): 25% | fungal coverage of the plates ([2]; 1000 ppm): 14% | fungal growth (% plate coverage) ([3]; 50 ppm): 50% | fungal growth (% plate coverage) ([3]; 100 ppm): 35% | fungal growth compared with 100, 50 or 0 ppm (Tukey test) ([3]; 250, 500 or 1000 ppm, p<0.05): significantly lower | fungal growth (% plate coverage) ([3]; 250 ppm): 7% | fungal growth (% plate coverage) ([3]; 500 ppm): 4% | Minimum lysozyme usage recommended [4]: 250-500 ppm | average fungal growth (% plate coverage) ([4]; 50 ppm): 77.7% | average fungal growth (% plate coverage) ([4]; 100 ppm): 79.5% | fungal growth (% plate coverage) compared to 0, 50 and 100 ppm (Tukey) ([4]; 250, 500 and 1000 ppm): significantly reduced | average fungal growth (% plate coverage) ([4]; 250 ppm): 38.6% | average fungal growth (% plate coverage) ([4]; 500 ppm): 25.7% | average fungal growth (% plate coverage) ([4]; 1000 ppm): 20.8% | coverage of the petri dishes ([5]; 50 ppm): 65.8% | coverage of the petri dishes ([5]; 100 ppm): 59.5% | coverage of the petri dishes ([5]; 250 ppm): 36.1% | coverage of the petri dishes ([5]; 500 ppm): 19.9% | coverage of the petri dishes ([5]; 1000 ppm): 14.4% | lowest concentration that significantly reduced the fungal growth ([5]; p<0.05): 50 ppm | fungal growth (% plate coverage) ([6]; 50 ppm): 33.7% | fungal growth (% plate coverage) ([6]; 100 ppm): 37.8% | fungal growth (% plate coverage) ([6]; 250 ppm): 23.5% | fungal growth (% plate coverage) ([6]; 500 ppm): 18.0% | lowest concentration that significantly reduced the fungal growth ([6]; p<0.05): 50 ppm | fungal growth (% plate coverage) ([7]; 50 ppm): 89.4% | fungal growth (% plate coverage) ([7]; 100 ppm): 90.0% | fungal growth (% plate coverage) ([7]; 250 ppm): 61.5% | fungal growth (% plate coverage) ([7]; 500 ppm): 36.2% | fungal growth (% plate coverage) ([7]; 1000 ppm): 33.9% | concentration required to significantly reduce the growth ([7]; p<0.05): 100 ppm | fungal growth (% plate coverage) ([8]; 50 ppm): 96.9% | fungal growth (% plate coverage) ([8]; 100 ppm): 90.6% | fungal growth (% plate coverage) ([8]; 250 ppm): 65.4% | fungal growth (% plate coverage) ([8]; 500 ppm): 43.0% | fungal growth (% plate coverage) ([8]; 1000 ppm): 34.7% | minimum concentration required to effectively inhibit this strain ([8]; p<0.05): 100 ppm | fungal growth (% plate coverage) (IM188 Botrytis cinerea; 50 ppm): 87.2% | fungal growth (% plate coverage) (IM188 Botrytis cinerea; 100 ppm): 86.2% | fungal growth (% plate coverage) (IM188 Botrytis cinerea; 250 ppm): 34.0% | fungal growth (% plate coverage) (IM188 Botrytis cinerea; 500 ppm): 16.4% | fungal growth (% plate coverage) (IM188 Botrytis cinerea; 1000 ppm): 11.3% | concentration at which the fungal growth was significantly reduced (IM188 Botrytis cinerea; p<0.05): 100 ppm
